Laboratory results taken from US12544375B2, “Small molecule therapeutic for parkinson's disease paired with a biomarker of therapeutic activity” (The Board of Trustees of the Leland Stanford Junior …, priority 2019, dated 2026).

Test system: iPSC-derived neurons
Test: Mitochondrial motility and clearance in axons of iPSC-derived neurons, live imaging
Assay type: cell-based, human
Conditions: 5 μM for 24 hrs
Procedure: FIG. 3A-FIG. 3D. Miro1 Reducer Rescues Parkinson's Neurodegeneration. (FIG. 3A) Fibroblasts were treated, lysed, and blotted as indicated. Band intensities are normalized to those of ATP5β from the same blots and compared to “Healthy-2, no treatment”. n=4. (FIG. 3B-FIG. 3C) iPSC-derived neurons were treated as indicated and immunostained with anti-TH (FIG. 3B) or stained with PI and Dapi (FIG. 3C). Both Antimycin A and Miro1 Reducer were dissolved in ethanol. Neurons were pretreated with Miro1 Reducer 24 hrs before the application of Antimycin A for another 6 hrs. The same volume of ethanol was applied at the same time in negative controls. (FIG. 3B) The density of TH-positive neurons is calculated in each condition under 20×, from 10 fields each experiment, 3-4 experiments. […] (FIG. 3C) The percentage of PI-positive cells out of total cells (Dapi-positive) is calculated. n=20 fields each experiment, 4 experiments. […] Graphs of Mean±S.E.M show the percent of time each mitochondrion is in motion (red and blue, compared to “Wild-type-I, before treatment”), and the mitochondrial intensity normalized to that of the same axonal region at “0 min” and expressed as a fraction of the mean of “Wild-type-I, 0 min”. n=33-77 mitochondria from 5-8 axons from 5-8 separate transfections. […]
Live Image Acquisition and Quantification. […]

O=C(Nc1ccc(Nc2cc(-n3ccnc3)ncn2)cc1)Nc1cccc(F)c1 [Miro1 Reducer]
basal motility of polarized, healthy mitochondria: did not affect | delayed arrest and clearance of depolarized mitochondria (then 100 μM Antimycin A, PD patient neurons): rescued the delayed arrest and clearance of depolarized mitochondria
